According to US10071133B2, “Method for destroying exosomes, kit for destroying exosomes, and method for isolating exosomes derived from normal cells” (priority 2015, dated 2018):

Columns and labels:
[1] = system: exosomes derived from human breast cancer cells (MM231-luc-D3H2LN) in human peripheral blood sample; details: […]10^10 particles/mL exosomes, 100 μM magainin 2 or 8% phenol, 25° C., 24 hours
Description: The exosome fraction A prepared from the cell line MM231-luc-D3H2LN derived from human breast cancer cells was added to a peripheral blood sample collected from a healthy person with no cancer (hereinafter will be also referred to as human peripheral blood sample) so as to become an exosome concentration of an actual cancer patient, and thereby an artificial sample of a human peripheral blood of the cancer patient was produced. The human peripheral blood sample was obtained after procurement of the patient informed consent according to the Declaration of Helsinki, similarly to the method described in Japanese Unexamined patent publication No. 2013-198483, for example. Blood was drawn using a blood collection tube containing an anticoagulant.
Using a part of the incubated solution, the exosomes were purified with Exo-Flow32 CD9 IP Kit (manufactured by SBI), and then the number of exosomes in the solution was measured using the nanoparticle analyzer (NanoSight LM10; manufactured by NanoSight, Ltd.). […] In addition, a part of the incubated solution was subjected to the serum component protein electrophoresis.

[2] = system: exosome derived from human prostate cancer cells (PC3ML); test: Extraction of microRNA (miR-21) from exosome derived from prostate cancer cells, real-time PCR; type: biochemical; details: 100 μM peptide, 1×10^11 particles/mL PC3ML exosomes, 0.4 U/μL RNase inhibitor, 37° C., 24 hours; without peptide 3×10^−14M
Description: A cell suspension of cell line PC3ML derived from human prostate cancer cells (provided by the National Cancer Center Research Institute) was seeded in a dish containing RPMI 1640 medium (manufactured by Thermo Fisher Scientific Inc.) containing 10% fetal bovine serum. Subsequently, the cell line was grown at 37° C. under the condition that CO2 concentration was set to 5 volume % using a CO2 incubator, and then the medium was replaced with Advanced RPMI 1640 medium (manufactured by Thermo Fisher Scientific Inc.), followed by culturing for 48 hours, and the culture solution containing exosomes was obtained. This culture solution was centrifuged at 2,000 G for 10 minutes to remove the precipitate, followed by centrifugation at 110,000 G for 70 minutes to precipitate the exosomes, and therefore an exosome fraction was recovered. The recovered exosome fraction was suspended in a phosphate buffered saline (PBS) and then stored at 4° C. Storage samples were lightly suspended with a vortex mixer (vibration mixer) before use. […]
The reverse transcription PCR solution obtained by the above described method was processed and by comparing the number of cycles on a calibration curve of microRNA using Taqman Assay primer (manufactured by Thermo Fisher Scientific Inc., Taqman microRNA Assays, Taqman Assay primer, and hsa-mir-21 or hsa-mir-16) and Real-Time PCR Master Mixes (manufactured by Thermo Fisher Scientific Inc., TaqMan Universal PCR Master Mix II, w/UNG) with StepOnePlus Real-Time PCR System, MiR-21 or miR-16 was quantified. […]
The amount of microRNA (miR-21) contained in the recovered eluate was quantified by the above described real-time PCR method. […] In addition, the destructive activity of the antimicrobial peptide used was evaluated on the basis of the following criteria based on the quantitative result of the concentration of microRNA (miR-21) performed by the real-time PCR method. […]

[3] = system: exosome fraction B derived from human breast cancer cells (MDA-MB-231-luc-D3H2LN); test: Extraction of microRNA (miR-21) from exosomes derived from human breast cancer cells, real-time PCR; type: biochemical; details: 100 μM peptide, 1×10^11 particles/mL exosomes, 0.4 U/μL RNase inhibitor, 37° C., 24 hours; without peptide 8×10^−14M
Description: A cell suspension of cell line MDA-MB-231-luc-D3H2LN derived from human breast cancer (=MM231-luc-D3H2LN, provided by the National Cancer Center Research Institute) was seeded in a dish containing RPMI 1640 medium (manufactured by Thermo Fisher Scientific Inc.) containing 10% fetal bovine serum. Subsequently, the cell line was grown at 37° C. under the condition that CO2 concentration was set to 5 volume % using a CO2 incubator, and then the medium was replaced with Advanced RPMI 1640 medium (manufactured by Thermo Fisher Scientific Inc.), followed by culturing for 48 hours, and therefore the culture solution containing exosomes was obtained. This culture solution was centrifuged at 2,000 G for 10 minutes to remove the precipitate, followed by centrifugation at 110,000 G for 70 minutes to precipitate the exosomes, and therefore an exosome fraction B was recovered. The recovered exosome fraction B was suspended in a phosphate buffered saline (PBS) and then stored at 4° C. Storage samples were lightly suspended with a vortex mixer (vibration mixer) before use.
MicroRNA (miR-21 or miR-16) in the reaction solution was subjected to reverse transcription PCR using reverse transcription primers (manufactured by Thermo Fisher Scientific Inc., Taqman microRNA Assays, RT primers, and hsa-mir-21 or hsa-mir-16) and a reverse transcriptase (manufactured by Thermo Fisher Scientific Inc., Taqman microRNA RT kit).
The reverse transcription PCR solution obtained by the above described method was processed and by comparing the number of cycles on a calibration curve of microRNA using Taqman Assay primer (manufactured by Thermo Fisher Scientific Inc., Taqman microRNA Assays, Taqman Assay primer, and hsa-mir-21 or hsa-mir-16) and Real-Time PCR Master Mixes (manufactured by Thermo Fisher Scientific Inc., TaqMan Universal PCR Master Mix II, w/UNG) with StepOnePlus Real-Time PCR System, MiR-21 or miR-16 was quantified. The calibration curve of microRNA was created using synthetic miR-21 (manufactured by Sigma-Aldrich Co. LLC.) or synthetic miR-16 (manufactured by Sigma-Aldrich Co. LLC.).
10 μL of the exosome fraction was prepared such that PBS contains 1×10^11 particles/mL of the exosome fraction B derived from human breast cancer cells, various antimicrobial peptides shown in the following Table 2 adjusted to 100 μM, and 0.4 U/μL of RNase inhibitor (manufactured by Toyobo Co., Ltd.), followed by incubation by being left to stand at 37° C. for 24 hours.
MicroRNA eluted into the solution was purified and recovered from the incubated solution of Example 10 above and Comparative Example 6 above by the following method.
First, 160 μL of PBS was added to the reaction solution, and then the solution was added to a centrifugal filter (manufactured by Millipore Corporation, Amicon Ultra 0.5 mL, 100K filter) and centrifuged at 14,000 G for 2 minutes. Subsequently, 100 μL of the centrifuged filtrate was recovered and introduced into a 1.5 mL tube. Next, 350 μL of RLT buffer (manufactured by QIAGEN, attached with RNeasy mini kit) and 675 μL of ethanol were added and mixed in the 1.5 mL tube. The obtained mixture was separated into two parts, and each of the separates was added onto a spin column (manufactured by QIAGEN, attached with RNeasy mini kit) followed by centrifugation at 8,000 G for 15 seconds, and the entire amount of the mixture was passed through the spin column. Thereafter, 500 μL of RPE buffer (manufactured by QIAGEN, attached with RNeasy mini kit) was added thereto and centrifuged at 8,000 G for 15 seconds. Furthermore, 500 μL of the RPE buffer was added to the spin column once more and centrifuged at 8,000 G for 15 seconds. Thereafter, the spin column was centrifuged at 14,000 G for 1 minute to remove the residual RPE buffer. Next, 30 μL of RNase free water (manufactured by QIAGEN, attached with RNeasy mini kit) was added to the spin column, left for 1 minute, and then centrifuged at 14,000 G for 1 minute, and the eluate obtained thereby was recovered. […]

| Molecule | exosome amount compared to Comparative Example 3 (no additive) [1] | Destructive activity (concentration of microRNA miR-21 in eluate) [2] | Destructive activity (concentration of microRNA miR-21 in eluate) [3] |
| --- | --- | --- | --- |
| Oc1ccccc1 [Comparative Example 2, phenol, reference compound] | decreased | – | – |
| Polybia-MPI | – | A (the concentration of microRNA is 10×10^−14M or more) | B (the concentration of microRNA is 10×10^−14M to 50×10^−14M) |
